Experimental data as given in patent US9095565B2, “Methods for treating blood disorders” (Phoenicia Biosciences, Inc., priority 2006, dated 2015).

Experiments:
γ globin promoter = assay: β/γ-globin promoter driven reporter gene assay; format: cell-based; details: Table 2
F-cell = assay: Related study: in vitro F cell production; format: cell-based
Description: (§1) In a related study, the relative luciferase reporter gene induction, γ-globin gene induction, and F cell production was tested for several of the candidate compounds. The relative in vitro γ-globin gene reporter stimulation for the tested compounds was as follows: compound P>M>W=R=Y. The relative in vitro γ-globin gene induction for the tested compounds was as follows: P>R=M>Y>W>. The relative in vitro F-cell production was as follows: W>Y>R>M>P. The relative potency for F-cell production was as follows: R>M>Y>P>W.

[1] = test system: Erythroid colonies (BFU-E); assay: Experiment 2: erythroid colonies (BFU-E) cultured from patients with beta thalassemia; format: cell-based, human; details: optimal panel of growth factors
Description: (§2) Erythroid burst-forming units (BFU-E) (erythroid progenitors) and colony-forming units granulocyte-macrophage (CFU-GM) (myeloid colonies) were cultured in semi-solid or in two-phase suspension media, with or without hematopoietic growth factors at high levels (e.g., erythropoietin at 3 U/ml) or reduced levels (BFU-E cell proliferation was evaluated by enumeration in colonies developing in the presence of reduced amounts of erythropoietin (0.5 U/ml) rather than 3 U (or 3000 mU)/ml, which is standard for these experimental systems), from cord blood or the peripheral blood of several types of humans. Experiments were carried out on samples derived from 1) β-thalassemia patients who expressed variable levels of fetal globin at baseline (and in untreated control cultures) and represent a variety of potential individual responses, 2) from normal umbilical cord blood samples, which express 40-50% fetal globin at baseline (and in untreated control cultures), 3) from CD34+ cells isolated from normal adult peripheral blood, which expressed low levels of fetal globin in untreated control cultures and at baseline; and 4) from peripheral blood of patients with sickle cell disease who were receiving treatment with hydroxyurea. These biological samples provide a range of potential difficulty in stimulating fetal globin expression in human patients.
Erythroid colonies were cultured from patients with beta thalassemia, either without any test compounds (Control), only an optimal panel of hematopoietic growth factors, or with one of the test compounds M, P, T, 2-methyl-1-benzofuran-4-carboxylic acid, V, W, X, Y, AK, AC, or AI. […] Colony numbers were increased above the control cultures (% BFU-E/Control) by anywhere from 25% to 230%. Each of the listed test compounds was tested in at least 5 different patients' blood and the differences were statistically significant.

[2] = test system: mice transgenic for the micro-LCR-201 gamma-globin gene promoter; assay: γ-globin induction and hematocrit in transgenic mice; format: in vivo, mouse; details: IP once/day, 5 days/week, 2 weeks
Description: Transgenic mice containing the human fetal globin gene and a micro-Locus Control Region (LCR) received no treatment (controls) or were treated with test compounds and γ-globin mRNA was analyzed by RT-PCR. Compound W was administered to mice transgenic for the micro-LCR-201 gamma-globin gene promoter, by IP injection once/day for 5 days/week for 2 weeks, and gamma-globin mRNA was assayed by qPCR. Hematocrit was analyzed once per week. A significant difference in expression of human fetal globin mRNA and in hematocrit between Control and compound W-treated mice was found in initial experiments as summarized in Table 4 below.

BFU-E = BFU-E cultured from cord blood; format: cell-based, human
Description: as §2
In a related study, BFU-E cultured from cord blood, was tested with or without compound M, P, R, T, W, Y, Z, AI, F, or 3-(5-chlorothien-3-yl)acrylic acid.

myeloid colonies = assay: Experiment 3: myeloid colonies in cord blood cultured without added growth factors; format: cell-based, human; details: no added growth factors
Description: as §2
Control colonies were established in cultures with no added growth factors to support myelopoiesis, in Iscove's Modified Dulbecco's Media (IMDM) methylcellulose media with charcoal-absorbed fetal bovine serum, beta mercaptoethanol, BSA.

γ-globin gene = assay: Related study: relative in vitro γ-globin gene induction; format: cell-based
Description: as §1

γ-globin mRNA = γ-globin mRNA by RT-PCR in erythroid colonies cultured from cord blood; format: cell-based, human
Description: γ-globin mRNA was analyzed in control and treated erythroid colonies cultured from cord blood, by RT-PCR.

[3] = test system: cells expressing fetal globin (F-cells); assay: Experiment 1: proportion of F-cells in hematopoietic colonies by FACScan; format: cell-based, human; details: same low concentrations as for fetal globin mRNA induction
Description: as §2
Hematopoietic colonies were enumerated with or without (+/−) the test compounds, and compared to colonies which developed in the presence of hematopoietic growth factors alone from the same subject (untreated control colonies), and proportions of cells expressing fetal globin (F-cells) were analyzed by FACScan analysis.

γ-globin gene reporter = assay: Related study: relative luciferase reporter gene induction; format: cell-based
Description: as §1

[4] = test system: erythroid (red blood cell) colonies; assay: Experiment 5: growth of erythroid colonies from cord blood with standard growth factors (EPO and Il-3); format: cell-based, human
Description: In an additional study, comparative growth of erythroid (red blood cell) colonies cultured from cord blood samples was evaluated with the addition of growth factors alone or with the addition of test compounds.
Control and test cultures were established from the same samples with the same growth factors (EPO and II-3) with addition of test compounds. The compounds tested were M, P, R, T, W, Y, Z, AI, F and 3-(5-chlorothien-3-yl)acrylic acid. Two compounds previously shown as positive proliferative agents were included for comparison.

Erythroid colonies = assay: Experiment 6: erythroid colony growth from sickle cell patients receiving hydroxyurea; format: cell-based, human
Description: Erythroid colonies from the peripheral blood of 4 patients with sickle cell disease who were receiving treatment with Hydroxyurea (HU), a chemotherapeutic agent which suppresses marrow growth and reduces red blood cell production, were cultured alone or with added test compounds M, P, 2-methyl-1-benzofuran-4-carboxylic acid, V, W, Y (racemic mixture) or AI. L-arginine was added as a neutral control, and had no effect on numbers of erythroid colonies.
2-methyl-1-benzofuran-4-carboxylic acid and compound V require additional samples for statistical evaluation, but had positive effects in 3/3 different patients' cultures. These findings indicate that the test compounds stimulate erythroid cell production particularly in conditions of anemia and bone marrow suppression.

γ-globin = details: cited from earlier work

| Compound | % γ globin promoter induction (above untreated control) (γ globin promoter) | relative in vitro F-cell production (rank order) (F-cell) | relative potency for F-cell production (rank order) (F-cell) | number of erythroid colonies compared to matched control cultures [1] | Hematocrit ([2]; untreated 51 +/− 0.45) | γ-globin mRNA/S16 (mean relative units) ([2]; untreated 1508) | numbers of BFU-E colonies compared to controls (BFU-E) | production of myeloid colonies compared to untreated control (myeloid colonies) | relative in vitro γ-globin gene induction (rank order) (γ-globin gene) | Concentration required (γ-globin mRNA; increase in fetal globin mRNA, erythroid colonies from cord blood) | No. of Positive responses (γ-globin mRNA; positive cultures/cultures tested) | proportion of F-cells above the percentage in untreated controls [3] | relative in vitro γ-globin gene reporter stimulation (rank order) (γ-globin gene reporter) | erythroid colony numbers [4] | effect on numbers of erythroid colonies compared to control (Erythroid colonies) | % Change from Control (erythroid colony growth) (Erythroid colonies; micromolar: L-arginine 150, AB 100, PA 100, M 1, P 100, 2-methyl-1-benzofuran-4-carboxylic acid 10, V 10, W 40, Y racemic mix 50, Al 30, Hydroxyurea 20) | Number with effects/No effect (Erythroid colonies; patients' cultures, same concentrations as % Change) | levels required in vitro (γ-globin) |
| --- | --- | --- | --- | --- | --- | --- | --- | --- | --- | --- | --- | --- | --- | --- | --- | --- | --- | --- |
| O=C(O)c1cccc(Cn2cc([N+](=O)[O-])cn2)c1 [Compound W] | ** (‘**’ indicates a 100%-200% increase) | W>Y>R>M>P | R>M>Y>P>W | increased the number of colonies | 57 +/− 3 | 3418 mean relative units | increased numbers of colonies | stimulated production of myeloid colonies | P>R=M>Y>W | 40 µM | 5/6 | significant increases | P>M>W=R=Y |  |  |  |  |  |
| arginine butyrate |  |  |  |  |  |  |  |  |  |  |  |  |  | reduced colony numbers | decreased numbers of erythroid colonies | −29% | 5/6 | 100 µM |
